Tests used:
Assay type in all cases: physicochemical
[1] = Stability of soft gelatin capsule of compound 1 at 40° C.; conditions: MCT fill 240 μg/g; for conc. (% of Initial) 40° C. 2 mo: 2 months; for conc. (% of Initial) 40° C. 3 mo: 3 months
Description: Sugar alcohol solution derived from corn starch in an amount shown in Table 3 was added in an appropriate amount of water, stirred and heated. Then, gelatin 100 parts by weight was added thereto to give gelatin solution. Compound 1 was dissolved in medium chain fatty acid triglyceride (USP/NF grade) to give a fill solution containing 240 μg/g of compound 1. The gelatin solution and the liquid mixture were loaded on capsule forming and filling machine to give capsule containing the fill solution therein, and the capsule was dried to give soft gelatin capsule.
The capsule was put in a sealed container and kept at 40° C. for 3 months. The concentration of compound 1 in the fill solution contained in the capsule was determined after 1, 2 and 3 months storage in the same manner as Reference Example 1.

[2] = Stability of compound 1/MCT solution (60 μg/g) kept with gelatin piece at 40° C. for 21 days; conditions: MCT solution, percentage of theoretical amount (60 μg/g)
Description: One hundred (100) parts by weight of gelatin (type A, high bloom, SKW Biosystems #195F) and 35 parts by weight of a plasticizer shown in Table 2 were mixed in water and dried to give gelatin piece. Compound 1 was dissolved in medium chain fatty acid triglyceride (USP/NF grade) to give a liquid mixture comprising 60 μg/g of the compound. 0.5 g of the liquid mixture and 0.5 g of each gelatin piece were put together in a sealed container and kept at 40° C. for 21 days. Then, the concentration of compound 1 contained in the liquid mixture was determined in the same manner as Reference Example 1.

[3] = Storage stability of compound 1 solution (240 μg/g) in a vehicle at 55° C., HPLC assay; conditions: percentage of theoretical amount (240 μg/g); for concentration of compound 1, day 10: 55° C., 10 days
Description: Compound 1 was dissolved in a vehicle shown in table 1 below to give 240 μg/g solution (sample). The precise concentration of compound 1 in the sample was determined by means of HPLC (day 0). Then, the sample was put in a hard grass container and kept at 55° C. for 10 days, and then the precise concentration of the compound 1 in the sample was determined by means of HPLC (day 10).
The determination of the concentration of the compound in the sample was carried out as follows. About 0.2 g of the sample was mixed with exactly 2 ml of internal standard solution and then with a dissolving agent shown in Table 1 to give 5 mL of sample solution. About 12 mg of the reference standard compound 1 was weighted precisely and added with acetonitrile to give exactly 100 ml solution. Exactly 0.8 ml of the solution was obtained and added with exactly 4 ml of the internal standard solution, and then added with the dissolving agent to give 10 ml of standard solution.
The fluorescent labeling agent was added to the respective solution, stirred and stood at room temperature. Then, respective solution in an amount that theoretically gives 3.6 ng of compound 1 was loaded on the column and analyzed under the condition as follows:
Column: 5 mm×25 cm stainless steel column packed with octadecylsilane treated silica gel for HPLC (5 μm)
Mobile phase: mixture of acetonitrile HPLC grade: methanol HPLC grade: ammonium acetate (0.05 mol/L)
Detector: spectrophotofluorometer

[4] = capsule shell gelatin 100 / sugar alcohol solution 35 parts by weight
[5] = capsule shell gelatin 100 / sugar alcohol solution 45 parts by weight
[6] = capsule shell gelatin 100 / sugar alcohol solution 55 parts by weight
[7] = vehicle polyethylene glycol 400

conc. (% of Initial) 40° C. 1 mo ([1]; capsule shell gelatin 100 / sugar alcohol solution 35 parts by weight, 1 month): 99.9%
conc. (% of Initial) 40° C. 2 mo [1, 4]: 100.3%
conc. (% of Initial) 40° C. 3 mo [1, 4]: 99.2%
conc. (% of Initial) 40° C. 2 mo [1, 5]: 100.5%
conc. (% of Initial) 40° C. 3 mo [1, 5]: 100.0%
conc. (% of Initial) 40° C. 2 mo [1, 6]: 99.3%
conc. (% of Initial) 40° C. 3 mo [1, 6]: 100.0%
concentration of compound 1 after storage ([2]; gelatin piece with glycerin plasticizer (water content 23%)): 86.8%
concentration of compound 1 after storage ([2]; gelatin piece with sugar alcohol solution derived from corn starch as plasticizer (water content 25%)): 92.0%
concentration of compound 1, day 10 ([3]; vehicle glycerin): 78.0%
concentration of compound 1, day 0 ([3]; vehicle glycerin): 92.0%
concentration of compound 1, day 10 ([3]; vehicle hydrogenated maltose starch syrup): 24.4%
concentration of compound 1, day 10 [3, 7]: 90.1%
concentration of compound 1, day 0 [3, 7]: 98.2%
concentration of compound 1, day 10 ([3]; vehicle propylene glycol): 88.6%
concentration of compound 1, day 0 ([3]; vehicle propylene glycol): 97.8%
concentration of compound 1, day 10 ([3]; vehicle sugar alcohol solution derived from corn starch (Polysorb 85/70/00)): 26.2%
SMILES: CCCCC(F)(F)[C@@]1(O)CC[C@H]2[C@@H](CC(=O)[C@@H]2CCCCCCC(=O)O)O1 [compound 1, 7-[(2R,4aR,5R,7aR)-2-(1,1-difluoropentyl)-2-hydroxy-6-oxooctahydrocyclopenta[b]pyran-5-yl]heptanoic acid]

Reference: US20140287036A1, “SOFT-GELATIN CAPSULE FORMULATION” (SUCAMPO AG, priority 2006, published 2014)
